Experimental data taken from a melting point compilation (Tetko et al.).

Conditions: a range is the spread between reports

melting point | Compound
61 to 65 °C | COc1ccc(C=Nc2ccccc2)cc1
-4 to -3 °C | OC(C(F)(F)F)C(F)(F)F
162 to 163 °C | c1ccc2c(c1)OCCOCCOc1ccccc1OCCOCCO2
-20.1 to -20 °C | CCCCCCCCCS
61 to 62.5 °C | CCCCCCCCCCCCCCCC(=O)O
68 to 71 °C | CCCCCCCCCCCCCCCCCC(=O)O
-124 °C | C/C=C/CC(C)C
-66.3 to -66 °C | C=CCCCCCCCC
234 to 237 °C | CC12C=CC(=O)C=C1CCC1C2C(=O)CC2(C)C1CCC2(O)C(=O)CO (stereo unspecified)
281 to 282 °C | CC12CCC3c4ccc(O)cc4CCC3C1CC(O)C2O (stereo unspecified)
248 to 249 °C | O=C(O)C=Cc1ccc(Cl)cc1
79.5 to 82 °C | N#Cc1cccc(O)c1
60 to 63 °C | C(#Cc1ccccc1)c1ccccc1
35.5 to 36 °C | O=Cc1ccc([N+](=O)[O-])o1
100 to 101 °C | CCOC(=O)c1ccc([N+](=O)[O-])o1
-53 to -52 °C | COCc1ccccc1
63.5 to 66 °C | C=C(C)c1ccc(C(=C)C)cc1
6.45 to 7 °C | C1CCCCC1
67 to 68.5 °C | O=C(c1ccccc1)C(Cl)c1ccccc1 (stereo unspecified)
10 to 10.7 °C | BrCCCOc1ccccc1
-45.1 to -42 °C | CCCCCCOCCO
118 to 120 °C | CC(C)(Oc1ccc(Cl)cc1)C(=O)O

melting point | Compound
-39.4 to -39 °C | CCCCCCCCCCl
87 to 88 °C | Nc1ccc2ncsc2c1
-127 to -126 °C | CC1CCCCC1
230 to 234 °C | O=C(O)c1ccc([N+](=O)[O-])c(O)c1
108 to 109 °C | Oc1ccc2[nH]ccc2c1
10 to 13.7 °C | Oc1cccc(F)c1
77 to 78 °C | O=C(O)Cc1cccc(C(F)(F)F)c1
87 to 89 °C | COc1ccccc1OC(=O)Oc1ccccc1OC
-74.4 to -74 °C | CC(C)c1ccccc1Cl
33 to 36 °C | O=C(Cl)c1cccc([N+](=O)[O-])c1
19 to 21 °C | CCCCCCCCCCCCCCCCS
100 to 101 °C | COc1ccc(C(=O)O)c(OC)c1OC
169 to 170 °C | O=C(O)c1ccccc1-c1ccc(C(F)(F)F)cc1
108 to 110 °C | CCN1CCNC(=O)C1=O
51.5 to 52 °C | CC(C)C(O)C(C)(C)CO (stereo unspecified)
107 to 108 °C | Oc1ccccn1
153 to 156 °C | CC(C)(c1ccc(O)cc1)c1ccc(O)cc1
116 to 117 °C | N#CCc1ccc([N+](=O)[O-])cc1
-99.3 to -99 °C | CCC(CC)C(C)(C)C
124 to 125 °C | Oc1cc(O)c2ccccc2c1
43.5 to 46 °C | O=Cc1ccccc1[N+](=O)[O-]
-9.3 to -9 °C | Brc1cccc(I)c1

melting point | Compound
-133 °C | C=C(Br)CC
177 to 180 °C | O=C(O)C=Cc1cccc(Br)c1
-78 to -74.7 °C | CCCCC1CCCCC1
212 to 214 °C | CC(C(=O)O)c1ccc(N2Cc3ccccc3C2=O)cc1 (stereo unspecified)
5 to 6 °C | Cc1cc(Br)ccc1Br
212 to 214 °C | COc1cc(C(=O)O)ccc1O
19 to 20.5 °C | CC(=O)c1ccccc1
62 to 64.5 °C | CCCCCCCCCCCCCCCCCCCCCCCCCCCC
-110 °C | C=C(C)C(C)(C)C
68 to 71 °C | Cc1cc(Cl)c(C)cc1Cl
139 to 140 °C | c1ccc(-c2nnc(-c3ccccc3)o2)cc1
-108 °C | CCCCCC(C)CC (stereo unspecified)
89 to 92.5 °C | CN(C)c1ccc(C(=O)c2ccccc2)cc1
-135 °C | C1=CCCC1
95 to 97 °C | CCCCNC(N)=O
-61.5 to -61 °C | C=C1CCC2CC1C2(C)C (stereo unspecified)
178 to 180 °C | CNC(=O)NC(C)=O
125 to 128 °C | O=C1CSC(=O)N1
-73.2 to -73 °C | CCCC(=O)OCCC(C)C
45.5 to 46 °C | Nc1ccc(F)c(Cl)c1
138 to 139 °C | O=C(O)c1cc(Cl)ccc1[N+](=O)[O-]
15 to 16.1 °C | Oc1ccccc1F

melting point | Compound
118 to 120 °C | Cc1c(O)cccc1O
142 to 143 °C | NC(=O)c1cccc([N+](=O)[O-])c1
99 to 100 °C | Cc1ccnc(N)c1
76 to 77 °C | O=C(O)[C@@H]1CCCN1C(=O)OCc1ccccc1
18 to 19 °C | COc1ccc(N=C=S)cc1
-122 °C | CCC(C(C)C)C(C)C
156 to 157 °C | NC(=O)c1ccncc1
-118 °C | CCC(C)=C(C)C
96 to 97 °C | CCNc1ccc([N+](=O)[O-])cc1
44 to 45.5 °C | CCCC(=O)NN
-31.3 to -31 °C | Ic1ccccc1
128 to 129 °C | O=C(O)Cc1ccc(O)c(O)c1
51.5 to 52 °C | COC(=O)c1ccccc1OC(C)=O
200 to 203 °C | O=C1Nc2ccccc2C1=O
73 to 75 °C | O=[N+]([O-])c1cc(F)ccc1O
64 to 64.5 °C | Brc1cc2ccccc2c2ccccc12
94 to 96.5 °C | Cc1ccc(C(=O)c2ccc(C)cc2)cc1
-160 °C | CCC(C)C
79.5 to 82 °C | CC(NC(=O)OC(C)(C)C)C(=O)O (stereo unspecified)
78 to 81.3 °C | CCC(N)=O
-63.1 to -63 °C | CC(C)c1cccc(C(C)C)c1
150 to 155 °C | Nc1ccncn1

Compound | melting point
Brc1ccc2ccccc2c1 | 54 to 59 °C
Fc1ccc(N=C=S)cc1 | 26 to 27 °C
ClCc1ccc(Cl)cc1 | 28 to 31 °C
OCCSSCCO | 25 to 26 °C
ClC1=C(Cl)C2(Cl)C3C(Cl)C=CC3C1(Cl)C2(Cl)Cl (stereo unspecified) | 95 to 95.5 °C
CCCCCCBr | -85 to -84.7 °C
O=C(O)C(Br)(Br)Br | 132 °C
Nc1ccccc1C(=O)O | 144 to 147 °C
CN1CC=C(c2ccccc2)CC1 | 38.5 to 40 °C
O=C(O)CCl | 61.5 to 63 °C
Cc1cc(Cl)ccc1O | 47 to 51 °C
O=C1c2ccccc2-c2cccc3cccc1c23 | 170 to 173 °C
Oc1cccc(Cl)c1Cl | 56 to 59 °C
O=C(Cc1ccccc1)c1ccccc1 | 55 to 60 °C
CC(Br)C(Br)C(=O)O (stereo unspecified) | 85 to 87 °C
Cc1ccccc1CBr | 19 to 21 °C
BrCc1ccccc1CBr | 94 to 95 °C

Compound | melting point
Cc1c2ccccc2cc2ccccc12 | 78 to 81.5 °C
O=[N+]([O-])c1cc(Cl)cc(Cl)c1 | 64 to 65.4 °C
CCCC(C)C1(CC)C(=O)NC(=O)NC1=O (stereo unspecified) | 130 °C
N#CC(c1ccccc1)c1ccccc1 | 74 to 74.3 °C
C=Cc1ccc(Br)cc1 | 5 to 7.7 °C
CN(C)C(=O)C(c1ccccc1)c1ccccc1 | 134 to 135 °C
Oc1c(I)cc(I)cc1I | 158 to 160 °C
Clc1ccccc1 | -46 to -45 °C
BrCCCCCCBr | -2.3 to 2 °C
Oc1ccc(Cl)cc1Cc1ccccc1 | 48 to 48.5 °C
COCCOC(C)=O | -65.1 to -65 °C
COC(=O)c1ccccc1N | 24 to 24.5 °C
N=C(Nc1ccccc1)Nc1ccccc1 | 149 to 150 °C
NC(=S)Nc1ccccc1 | 149 to 154 °C
c1ccc2c(c1)Nc1ccccc1S2 | 184 to 188 °C
CCC(C)=O | -87 to -86 °C
